In US20120190635A1, “SELECTIVE OXIDATION OF C-H BONDS OF MODIFIED SUBSTRATES BY P450 MONOOXYGENASE” (THE REGENTS OF THE UNIVERSITY OF MICHIGAN, priority 2009, published 2012):
Converted amounts (≈) assume the structure as drawn. Read-outs that look alike come from different tables or passages of the source.

Tests used:
PikCD50N-RhFRED [1] = target: T1, PikCD50N-RhFRED (Streptomyces venezuelae, UniProt O87605, D50N); type: biochemical; conditions: for Number of products: Table 1
PikCD50N-RhFRED [2] = target: T1, PikCD50N-RhFRED; experiment: substrate binding assay, PikCD50N-RhFRED
Method: The unnatural cyclic carbolide substrate desosaminyl cyclododecane was synthesized to mimic the structure of the natural substrate YC-17 using a recently developed synthetic strategy (Anzai Y, et al. Functional analysis of MycG and MycCI, cytochrome P450 enzymes involved in biosyntheis of mycinamicin macrolide antibiotics. Chem. Biol. 2008 15:950-959), which was subsequently employed as a general approach to derivatize diverse alcohols with desosamine (FIG. 6). The standard assay contains 5 μM PikCD50N—RhFRED, 0.5 mM substrate, 2.5 mM NADPH, 0.25 Unit of glucose-6-phosphate dehydrogenase, and 5 mM glucose-6-phosphate for NADPH regeneration in 100 μl of reaction buffer (50 mM NaH2PO4, pH 7.3, 1 mM EDTA, 0.2 mM dithioerythritol, and 10% glycerol). The reaction was carried out at 30° C. for 3 h and terminated by extraction using 3×200 μl of CHCl3. The resulting organic extract was dried by N2 and redissolved in 120 μl of methanol. The subsequent LC-MS analysis was performed on a ThermoFinnigan LTQ linear ion-trap instrument (Department of Pharmacology, University of Michigan) equipped with electrospray source and Surveyor HPLC system by using an XBridge™ C18 3.5 μm 150 mm reverse-phase HPLC column under following conditions: mobile phase (A=deionized water+0.1% formic acid, B=acetonitrile+0.1% formic acid), 20% B for 3 min, 20-100% B over 25 min, 100% B for 5 min, 100-20% B over 1 min, 20% B for 15 min; flow rate, 0.21 ml/min The substrate binding assays were performed following the previous report (Li et al., supra).
The decreased binding affinity of desosaminyl cyclododecane could result from […], an entropic penalty upon binding due to high conformational freedom of the saturated ring system, […]) lack of hydrophobic interactions between the functional groups on the macrolactone ring of […] and PikC active site residues, and/or […]) loss of some specific interactions with desosamine as observed in the co-crystal structure with PikC. […] Due to enhanced substrate conversion and ease of use in the absence of expensive exogenous redox partners, PikCD50N—RhFRED was employed to hydroxylate carbolide desosaminyl cyclododecane and all other substrates.

[3] = test system: Staphylococcus aureus ATCC6538P; experiment: antibacterial MIC, microtiter dilution; conditions: Staphylococcus aureus, ATCC6538P, read-out: Minimal inhibitory concentration
[4] = test system: selected microbial targets; experiment: antibacterial activity, summary in words; type: cell-based
Method: All measurements were performed in duplicate.
The bioactivity of 8 was compared with its synthetic hydroxylated products. Unexpectedly, upon installation of a hydroxyl group at either the C7/C8 or C6/C9 positions (the four authentic standards, each of which contains a pair of diastereomers), the products lost activity. […] Further analysis of these carbolides, and direct investigation of their presumed binding to ribosomal targets will provide important insights into the impact of PikC-mediated regioselective hydroxylation for development of new small molecules for treatment of microbial pathogens and other human diseases.

[5] = test system: Kocuria rhizophila ATCC9341; experiment: antibacterial MIC, microtiter dilution; conditions: Kocuria rhizophila, ATCC9341, read-out: Minimal inhibitory concentration
S. aureus NorA = experiment: antibacterial MIC, microtiter dilution; conditions: Staphylococcus aureus, read-out: Minimal inhibitory concentration
[6] = test system: Bacillus subtillis DHS5333; experiment: antibacterial MIC, microtiter dilution; conditions: Bacillus, DHS5333, read-out: Minimal inhibitory concentration
[7] = test system: Multidrug resistant S. aureus (MRSA); experiment: antibacterial MIC, microtiter dilution; conditions: Staphylococcus aureus, MRSA, read-out: Minimal inhibitory concentration
Deinococcus radiodurans = experiment: antibacterial MIC, microtiter dilution; conditions: 60 h
Acinetobacter baumannii = experiment: antibacterial MIC, microtiter dilution; conditions: read-out: Minimal inhibitory concentration
Escherichia. coli TolC = experiment: antibacterial MIC, microtiter dilution; conditions: Escherichia coli, read-out: Minimal inhibitory concentration, E. coli W3110 TolC disruption mutant; Mueller Hinten
[8] = read-out: Minimal inhibitory concentration, Deinococcus radiodurans, Special media, 30° C.

T1 sequence (O87605 other isoform, or with tags, fused parts or gaps D50N): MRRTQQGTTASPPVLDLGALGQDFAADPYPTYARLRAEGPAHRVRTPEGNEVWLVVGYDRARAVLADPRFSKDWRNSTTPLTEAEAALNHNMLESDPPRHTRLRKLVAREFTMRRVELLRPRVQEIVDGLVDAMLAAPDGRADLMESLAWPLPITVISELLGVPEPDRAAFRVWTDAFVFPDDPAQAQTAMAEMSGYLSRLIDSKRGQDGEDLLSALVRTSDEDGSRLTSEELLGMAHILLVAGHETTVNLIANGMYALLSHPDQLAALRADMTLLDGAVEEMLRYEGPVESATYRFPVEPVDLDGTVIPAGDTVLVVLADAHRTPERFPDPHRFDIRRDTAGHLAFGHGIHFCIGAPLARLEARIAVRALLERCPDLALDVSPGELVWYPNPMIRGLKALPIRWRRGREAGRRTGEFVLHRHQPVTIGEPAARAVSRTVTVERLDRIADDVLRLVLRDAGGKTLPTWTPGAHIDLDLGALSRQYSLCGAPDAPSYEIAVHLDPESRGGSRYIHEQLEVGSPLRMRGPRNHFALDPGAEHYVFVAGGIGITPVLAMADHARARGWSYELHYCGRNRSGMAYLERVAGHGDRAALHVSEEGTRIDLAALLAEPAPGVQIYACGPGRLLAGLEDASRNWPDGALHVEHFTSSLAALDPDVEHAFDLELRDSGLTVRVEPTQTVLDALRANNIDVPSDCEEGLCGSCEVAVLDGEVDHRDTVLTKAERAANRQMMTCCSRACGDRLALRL

Row | Structure (SMILES) | Number of products (PikCD50N-RhFRED [1]; PikCD50N-RhFRED) | Kd (PikCD50N-RhFRED [2]) [µM] | MIC [3] [µM] | antibacterial activity in words [4] | MIC [5] [µM] | MIC (S. aureus NorA) [µM] | MIC [6] [µM] | MIC [7] [µM] | MIC (Deinococcus radiodurans; [8]) [µM] | MIC (Acinetobacter baumannii) [µM] | MIC (Escherichia. coli TolC) [µM] | share of monohydroxylated products oxidized at sites remote from desosamine (PikCD50N-RhFRED [1]; C7 and C6/C8 for the 12-membered ring, C7/C8 or C6/C9 for the 13-membered ring) [%] | number of oxidized products (PikCD50N-RhFRED [1]; PikCD50N-RhFRED) | MIC (Deinococcus radiodurans; read-out: Minimal inhibitory concentration) [µM]
1 | CC1CC(N(C)C)C(O)C(OC2CCCCCCCCCCCCC2)O1 (stereo not shown) [Compound 10, 2-(cyclotetradecyloxy)-4-(dimethylamino)-6-methyltetrahydro-2H-pyran-3-ol] | 6 | 289 | > 400 | displayed some inhibitory activities | 50 (≈ 18.5 µg/mL) | 400 (≈ 148 µg/mL) | 200 (≈ 73.9 µg/mL) | 400 (≈ 148 µg/mL) | 50 (≈ 18.5 µg/mL) | > 400 | 50 (≈ 18.5 µg/mL) |  |  | 
2 | CC1CC(N(C)C)C(O)C(OC2CCCCCCCCCCCC2)O1 (stereo not shown) [Compound 8, 2-(Cyclotridecyloxy)-4-(dimethylamino)-6-methyltetrahydro-2H-pyran-3-ol] | 6 | 218 | 400 (≈ 142 µg/mL) | displayed some inhibitory activities | 50 (≈ 17.8 µg/mL) | 200 (≈ 71.1 µg/mL) | 200 (≈ 71.1 µg/mL) | 200 (≈ 71.1 µg/mL) | 100 (≈ 35.6 µg/mL) | > 400 | 50 (≈ 17.8 µg/mL) | 94 |  | 
3 | CC1CC(N(C)C)C(O)C(OC2CCCCCCCCCCCCCC2)O1 (stereo not shown) [Compound 12, 2-(cyclopentadecyloxy)-4-(dimethylamino)-6-methyltetrahydro-2H-pyran-3-ol] | 9 | 243 | 200 (≈ 76.7 µg/mL) | displayed some inhibitory activities | 50 (≈ 19.2 µg/mL) | 100 (≈ 38.4 µg/mL) | 100 (≈ 38.4 µg/mL) | 100 (≈ 38.4 µg/mL) | 50 (≈ 19.2 µg/mL) | > 400 | 50 (≈ 19.2 µg/mL) |  |  | 
4 | CCCCCCC#CCCOC1OC(C)CC(N(C)C)C1O (stereo not shown) [Compound 17, 2-(Dec-3-ynyloxy)-4-(dimethylamino)-6-methyltetrahydro-2H-pyran-3-ol] | 5 | 2900 | > 400 |  | > 400 | > 400 | > 400 | > 400 | > 400 | > 400 | > 400 |  |  | 
5 | CC1CC(N(C)C)C(O)C(Oc2ccc3ccc4cccc5ccc2c3c45)O1 (stereo not shown) [Compound 19, 4-(Dimethylamino)-6-methyl-2-(pyren-1-yloxy)tetrahydro-2H-pyran-3-ol] | 1 | > 5000 | 25 (≈ 9.39 µg/mL) |  | 25 (≈ 9.39 µg/mL) | 25 (≈ 9.39 µg/mL) | 6.2 (≈ 2.33 µg/mL) | 25 (≈ 9.39 µg/mL) |  | 100 (≈ 37.5 µg/mL) | 25 (≈ 9.39 µg/mL) |  | single | 25 (≈ 9.39 µg/mL)
